Data on two compounds can be found in patent US6664036B1, “Homogeneous single-part color developer per color film processing and method of using same” (priority 2002, dated 2003).

The nature of the series: Solubility of Color Developing Agents CD-2 and CD-3 free base with co-solvent. The class given is physicochemical. On the set-up: unit not given here. To be noted: free base form, same manner as Example 1. The procedure:
The co-solvent shown in TABLE I below were tested for their ability to solubilize KODAK Color Developing Agent CD-4 in free base form, in a solution matrix similar to conventional color developing concentrates. KODAK Color Developing Agent CD-4 was prepared in free base form by neutralizing a saturated solution of KODAK Color Developing Agent CD-4 disulfate salt with a stoichiometric quantity of 45% potassium hydroxide. The resulting mixture was stirred and allowed to separate into two layers, the KODAK Color Developing Agent CD-4 free base oil being in the top layer. The top layer was then drawn off for use in the solubility test.
A solution was prepared containing approximately 90 g/l solution of the various co-solvents using a stock solution containing 233 g/l of potassium carbonate, 84.5 g/l of potassium bicarbonate and 67 g/l of potassium sulfite at pH 10.4. Free acid co-solvents were neutralized with a stoichiometric quantity of 45% potassium hydroxide before the test solution was prepared. KODAK Color Developing Agent CD-4 in free base was then added to each test solution with stirring, and the quantity was monitored by weight until precipitation occurred. Using the final volume of the saturated solution and the amount of color developing agent added, the solubility of the color developing agent was calculated.
The solubility of KODAK Color Developing Agents CD-2 and CD-3 were tested in the same manner described in Example 1 for KODAK Color Developing Agent CD-4.

Setting [1] is: co-solvent Diethylene glycol 90 g/l.
Where [2] appears, read: co-solvent Sodium Benzoate 85-88 g/l.

Some results are limits rather than exact numbers.

`CCN(CC)c1ccc(N)c(C)c1.Cl` [CD-2, 4-(N,N-diethyl)-2-methylaniline hydrochloride]: the “Color Developing Agent Solubility” value is given as under 4 under setting [1] and 12 under setting [2].
As to `CCN(CCNS(C)(=O)=O)c1ccc(N)c(C)c1.CCN(CCNS(C)(=O)=O)c1ccc(N)c(C)c1.O=S(=O)(O)O.O=S(=O)(O)O.O=S(=O)(O)O` [CD-3, 4-(N-ethyl-N-methanesulfonamidoethyl)-2-methylaniline sesquisulfate], the “Color Developing Agent Solubility” value is, setting by setting: under setting [1], under 4; under setting [2], 66.
